{
  "source": "paper PMC5784979",
  "about": "“Direct comparison of the four aldehyde oxidase enzymes present in mouse gives insight into their substrate specificities” (PLoS ONE, 2018)",
  "target": "T1, mAOX2 (Mus musculus, UniProt Q5SGK3)",
  "T1 construct": "gene Aox2; recombinant from E. coli TP1000 (codon-optimized plasmid pMAOX2co), Ni-NTA and Superdex 200 purified, chemically sulfurated, dimer (300 kDa)",
  "T1 sequence (Q5SGK3 1-1345)": "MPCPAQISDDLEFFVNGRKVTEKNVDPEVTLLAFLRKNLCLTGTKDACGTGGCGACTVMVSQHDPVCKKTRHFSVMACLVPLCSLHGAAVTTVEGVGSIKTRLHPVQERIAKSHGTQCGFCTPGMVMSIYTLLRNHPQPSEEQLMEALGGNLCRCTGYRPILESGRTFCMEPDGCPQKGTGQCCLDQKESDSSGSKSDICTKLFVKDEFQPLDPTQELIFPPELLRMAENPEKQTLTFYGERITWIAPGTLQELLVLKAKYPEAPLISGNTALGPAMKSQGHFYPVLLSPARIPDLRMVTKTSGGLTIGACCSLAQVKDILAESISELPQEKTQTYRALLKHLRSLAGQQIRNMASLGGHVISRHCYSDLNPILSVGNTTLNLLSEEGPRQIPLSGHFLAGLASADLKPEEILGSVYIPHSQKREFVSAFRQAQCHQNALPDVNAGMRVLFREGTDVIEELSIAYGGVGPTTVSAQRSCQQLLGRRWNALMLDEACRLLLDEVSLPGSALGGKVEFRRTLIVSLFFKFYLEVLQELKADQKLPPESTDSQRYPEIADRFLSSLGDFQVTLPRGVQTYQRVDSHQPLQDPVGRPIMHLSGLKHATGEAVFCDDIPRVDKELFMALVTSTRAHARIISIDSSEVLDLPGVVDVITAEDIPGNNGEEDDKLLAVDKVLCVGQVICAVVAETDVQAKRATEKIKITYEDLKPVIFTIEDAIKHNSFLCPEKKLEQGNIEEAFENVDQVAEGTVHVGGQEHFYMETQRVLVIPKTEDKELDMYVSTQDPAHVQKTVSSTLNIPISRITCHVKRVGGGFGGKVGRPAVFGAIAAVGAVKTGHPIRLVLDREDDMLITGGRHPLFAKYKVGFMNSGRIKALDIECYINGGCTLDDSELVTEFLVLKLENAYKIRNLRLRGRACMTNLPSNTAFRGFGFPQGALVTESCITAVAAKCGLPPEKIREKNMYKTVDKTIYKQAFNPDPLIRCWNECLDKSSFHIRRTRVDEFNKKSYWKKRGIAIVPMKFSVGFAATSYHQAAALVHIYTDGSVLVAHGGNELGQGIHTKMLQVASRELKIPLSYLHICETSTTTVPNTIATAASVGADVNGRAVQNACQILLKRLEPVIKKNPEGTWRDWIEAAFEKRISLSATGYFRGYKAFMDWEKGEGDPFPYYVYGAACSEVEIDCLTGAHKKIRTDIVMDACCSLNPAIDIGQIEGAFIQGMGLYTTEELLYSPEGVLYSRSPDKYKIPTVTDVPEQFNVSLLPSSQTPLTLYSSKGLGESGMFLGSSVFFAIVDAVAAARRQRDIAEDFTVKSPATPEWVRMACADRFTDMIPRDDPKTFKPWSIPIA",
  "experiment": "DCPIP reduction at […] nm, steady-state kinetics",
  "assay_type": "biochemical",
  "conditions": "100 μM DCPIP as electron acceptor, 50 mM Tris-HCl, 1 mM EDTA, pH 8.0, 37°C, corrected to 100% Mo saturation",
  "data": [
    {"smiles": "CC=O", "note": "[acetaldehyde]", "values": [
      {"measurement": "Km", "value": "4.4 to 4.6", "unit": "mM"}
    ]},
    {"smiles": "O=Cc1ccc(O)cc1", "note": "[4-hydroxybenzaldehyde]", "values": [
      {"measurement": "Km", "setting": "limit given jointly for mAOX3, mAOX4 and mAOX2", "value": "< 0.002", "unit": "mM"}
    ]}
  ]
}
